The text below walks through data of patent EP4678638A1, “NEW E3 UBIQUITIN LIGASE LIGAND, PROTEIN DEGRADATION AGENT AND USE THEREOF” (priority 2023, dated 2024).

The test system of one assay is PC-9. In words: CCK-8 proliferation, PC-9. In kind it is cell-based, Human. The following applies: Homo sapiens, PC-9; CCK-8; 96 hours; read-out: Inhibitory activity (IC50) on tumor cell proliferation, PC-9. In a few lines: (§1)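 Tumor cells were cultured at 37°C with 5% CO2, seeded, and after 24h treated with compounds at 10 concentrations starting at 10µM (5-fold serial dilutions).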

In a further assay the test system is H2228. In words: CCK-8 proliferation, NCI-H2228 (H2228). In kind it is cell-based. Conditions: Homo sapiens, NCI-H2228; CCK-8; 96 hours; read-out: Inhibitory activity (IC50) on tumor cell proliferation, H2228. The procedure, abridged: as §1
The next assay deals with MM.1R. In words: CCK-8 proliferation, MM.1R. In kind it is cell-based. Conditions: CCK-8, 72 hours, read-out: Inhibitory activity (IC50) on tumor cell proliferation, MM.1R. The procedure: (§2) The tumor cells used herein were cultured in a cell culture medium listed in table A1 at 37°C in an incubator with 5% CO2. Prior to experimentation, all cell lines used were correctly identified by STR profiling, and tested negative for mycoplasma contamination using a mycoplasma detection kit through routine screenings. Table A1. Tumor cells and cell culture medium used in the present disclosure
(§3) IC50 values of the compounds of the present disclosure (including the compounds in Table 1, and compounds of examples) were measured using the Meilun Cell Counting Kit-8 kit from Dalian Meilun Biotech Co., Ltd. Assay details are as follows: tumor cells were seeded in a 96-well plate at a density listed in Table A2. After 24h, 100 µL of the inoculated cells were treated with 0.5µL of the compounds of the present disclosure (including the compounds in Tables 1 and 2, and compounds of examples) at 10 different successively decreasing concentrations (starting at the highest concentration of 10µM; 5-fold serial dilutions). After the cells were treated with the compounds of the present disclosure for a period of time, the cell viability detection reagent was added to the culture medium for cell viability assessment according to the instructions provided with the CCK-8 kit. […] The growth inhibition of the compounds of the present disclosure on cells was plotted by Prism Graphpad software, and the IC50 values of the compounds of the present disclosure were calculated therefrom. […] Seeding protocol and treatment time for tumor cells

The test system of a further assay is H1975. In words: CCK-8 proliferation, NCI-H1975 (H1975). Format: cell-based, Human. Conditions: Homo sapiens, NCI-H1975; CCK-8; 96 hours; read-out: Inhibitory activity (IC50) on tumor cell proliferation, H1975. The procedure, abridged:
as §1

The next assay deals with SW620. In words: CCK-8 proliferation, SW620. In kind it is cell-based. The following applies: Homo sapiens, SW-620; CCK-8; 96 hours; read-out: Inhibitory activity (IC50) on tumor cell proliferation, SW620. In a few lines: as §1
In a further assay the target is T1, CDK6 (Homo sapiens, UniProt Q00534).
T1 construct: evaluate the effects of the compounds of the present disclosure on the expression of target proteins in cells; endogenous in cells; host or cells: MDA-MB-231
The assay can be described thus: Western blot degradation of CDK6 (MDA-MB-231 Cell). Format: cell-based. Conditions: Table D3. In a few lines:
(§4)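 After compound exposure, cells were harvested and lysates run on SDS-PAGE, transferred to nitrocellulose and probed with antibodies. Remaining target (%) was computed from band grayscale relative to an internal control protein and normalised; degradation (%) was 100% minus that.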
(In general: A western blot detects proteins with antibodies after separation by electrophoresis.)

The target in the next assay is T2, CDK4 (Homo sapiens, UniProt P11802).
T2 construct: evaluate the effects of the compounds of the present disclosure on the expression of target proteins in cells; endogenous in cells; host or cells: MDA-MB-231
In words: Western blot degradation of CDK4 (MDA-MB-231 Cell). Format: cell-based. Conditions: Table D3. In a few lines:
as §4

For the next assay, the system named is MM.1S. The assay can be described thus: CCK-8 proliferation, MM.1S. Conditions: Homo sapiens, MM1.S; CCK-8; 72 hours; read-out: Inhibitory activity (IC50) on tumor cell proliferation, MM1S. In kind it is cell-based. The procedure, abridged: as §1
Another assay deals with CCRF-CEM. The assay can be described thus: CCK-8 proliferation, CCRF-CEM. Format: cell-based, Human. Conditions: Homo sapiens, CCRF-CEM; CCK-8; 96 hours; read-out: Inhibitory activity (IC50) on tumor cell proliferation, CCRF-CEM. In a few lines:
as §1

The target of assay [1] is T3, human Cereblon WT GST-tagged protein (Homo sapiens, UniProt Q96SW2).
T3 construct: purchased CISBIO 64BDCRBNPEH
The assay can be described thus: CRBN binding, HTRF (CEREBLON BINDING kit). The following applies: Table II-2, CRBN binding screening, HTRF; for inhibition at 0.5 µM: read-out: Inhibition rate (%) at 0.5µM; for inhibition at 2 µM: read-out: Inhibition rate (%) at 2 µM. The procedure, abridged: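 Competitive HTRF: GST-tagged human WT Cereblon mixed with compound, Thalidomide-Re tracer and GST Eu antibody, incubated 3 h at room temperature. Signals read at 620 and 665 nm.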

A further assay deals with Kasumi-1. In words: CCK-8 proliferation, Kasumi-1. In kind it is cell-based, Human. Conditions: Homo sapiens, Kasumi 1, 72 hours, read-out: Inhibitory activity (IC50) on tumor cell proliferation, Kasumi-1. On the procedure:
as §2, §3

In a further assay the test system is 22RV1. The assay can be described thus: CCK-8 proliferation, 22RV1. Format: cell-based. Conditions: Homo sapiens, 96 hours, read-out: Inhibitory activity (IC50) on tumor cell proliferation, 22RV1. On the procedure: as §2, §3
For a further assay, the system named is MCF7. In words: CCK-8 proliferation, MCF7 (MCF-7). Format: cell-based. The following applies: Homo sapiens, MCF7; CCK-8; read-out: Inhibitory activity (IC50) on tumor cell proliferation, MCF7. In a few lines: as §1
For the next assay, the system named is Jurkat. The assay can be described thus: CCK-8 proliferation, Jurkat. The following applies: Homo sapiens, Jurkat; CCK-8; 96 hours; read-out: Inhibitory activity (IC50) on tumor cell proliferation, Jurkat. Format: cell-based, Human. In a few lines: as §1
For another assay, the system named is SR. The assay can be described thus: CCK-8 proliferation, SR. The following applies: Homo sapiens, SR; CCK-8; 72 hours; read-out: Inhibitory activity (IC50) on tumor cell proliferation, SR. Format: cell-based, Human. In a few lines: as §1

T3 sequence (Q96SW2 whole entry): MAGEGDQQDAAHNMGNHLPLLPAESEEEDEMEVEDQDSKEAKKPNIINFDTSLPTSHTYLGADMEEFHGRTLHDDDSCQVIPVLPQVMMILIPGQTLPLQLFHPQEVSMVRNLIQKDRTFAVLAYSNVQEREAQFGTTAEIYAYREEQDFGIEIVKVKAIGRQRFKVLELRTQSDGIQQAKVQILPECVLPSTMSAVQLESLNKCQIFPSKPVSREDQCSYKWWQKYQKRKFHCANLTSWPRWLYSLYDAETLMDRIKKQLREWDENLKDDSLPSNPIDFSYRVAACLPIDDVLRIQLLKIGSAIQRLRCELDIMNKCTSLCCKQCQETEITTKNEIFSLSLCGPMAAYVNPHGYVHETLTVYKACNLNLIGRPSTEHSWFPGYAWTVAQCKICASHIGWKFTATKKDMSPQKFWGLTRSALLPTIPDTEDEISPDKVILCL
T1 sequence (Q00534 whole entry): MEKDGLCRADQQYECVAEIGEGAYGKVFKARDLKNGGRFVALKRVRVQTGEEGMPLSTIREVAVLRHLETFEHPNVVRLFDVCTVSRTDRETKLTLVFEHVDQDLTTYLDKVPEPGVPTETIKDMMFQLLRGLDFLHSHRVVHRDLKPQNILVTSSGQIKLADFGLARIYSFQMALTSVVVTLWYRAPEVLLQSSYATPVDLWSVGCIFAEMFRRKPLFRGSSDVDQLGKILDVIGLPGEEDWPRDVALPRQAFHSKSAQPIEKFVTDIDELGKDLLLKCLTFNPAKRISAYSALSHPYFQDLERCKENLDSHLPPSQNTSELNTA
T2 sequence (P11802 whole entry): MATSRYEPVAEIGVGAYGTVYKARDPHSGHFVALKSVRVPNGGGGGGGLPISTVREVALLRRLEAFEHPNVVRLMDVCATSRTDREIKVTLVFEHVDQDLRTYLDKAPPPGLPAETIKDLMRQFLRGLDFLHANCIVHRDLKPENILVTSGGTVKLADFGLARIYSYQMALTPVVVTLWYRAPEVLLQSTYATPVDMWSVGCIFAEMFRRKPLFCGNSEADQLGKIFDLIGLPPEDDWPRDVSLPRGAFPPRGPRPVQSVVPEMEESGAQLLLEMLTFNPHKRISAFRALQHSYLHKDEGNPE

With `CN1CCN([C@@H]2CCCN(c3cnc(C(N)=O)c(Nc4ccc(C5CCN(Cc6cccc(N7CCC(=O)NC7=O)c6)CC5)cc4)n3)C2)C1=O` [GT-04800, (R)-3-((4-(1-(3-(2,4-dioxotetrahydropyrimidin-1(2H)-yl)benzyl)piperidin-4-yl)phenyl)amino)-5-(3-(3-methyl-2-oxoimidazolidin-1-yl)piperidin-1-yl)pyrazine-2-carboxamide], the IC50 lay within 100 to 500 nM in the assay on PC-9, 500 to 1000 nM in the assay with H2228 and 500 to 1000 nM with MM.1R.
On to `CN1CCN([C@@H]2CCCN(c3cnc(C(N)=O)c(Nc4ccc(C5CCN(Cc6ccc(N7CCC(=O)NC7=O)cc6F)CC5)cc4)n3)C2)C1=O` [GT-04803, (R)-3-((4-(1-(4-(2,4-dioxotetrahydropyrimidin-1(2H)-yl)-2-fluorobenzyl)piperidin-4-yl)phenyl)amino)-5-(3-(3-methyl-2-oxoimidazolidin-1-yl)piperidin-1-yl)pyrazine-2-carboxamide], for which the IC50 was in the range of 100 to 500 nM with PC-9; 500 to 1000 nM with H1975; 100 to 500 nM in the assay on SW620; 100 to 500 nM in the assay on H2228; 100 to 500 nM with MM.1R.
As to `Cc1nc2c(F)cc(-c3nc(Nc4ccc(N5CCC(N6CCN(Cc7ccc(C8CCC(=O)NC8=O)cc7)CC6)CC5)cn4)ncc3F)cc2n1C(C)C` (stereo not drawn) [GT-03905, 3-(4-((4-(1-(6-((5-fluoro-4-(4-fluoro-1-isopropyl-2-methyl-1H-benzo[d]imidazol-6-yl)pyrimidin-2-yl)amino)pyridin-3-yl)piperidin-4-yl)piperazin-1-yl)methyl)phenyl)piperidine-2,6-dione], on CDK6, the “Degradation of substrate protein CDK6 (substrate protein remaining %)” value is listed as “A (A is defined as 0% ≤ substrate protein remaining % ≤ 80%)”. Moreover, the “Degradation of substrate protein CDK4 (substrate protein remaining %)” value on CDK4 is listed as “A (A is defined as 0% ≤ substrate protein remaining % ≤ 80%)”. The IC50 in the assay with MM.1S lay in the range of 50 to 100 nM; in the assay on H1975, 100 to 500 nM; with CCRF-CEM, 100 to 500 nM; in the assay with Kasumi-1, 50 to 100 nM; in the assay with MM.1R, 50 to 100 nM. Further, the inhibition at 0.5 µM in [1] was 40 to 53%. For the same molecule, the inhibition at 2 µM in [1] is 53 to 60%.
Turning to `Cc1nc2c(F)cc(-c3nc(Nc4ccc(N5CCC(N6CCN(Cc7cc(N8CCC(=O)NC8=O)ncc7F)CC6)CC5)cn4)ncc3F)cc2n1C(C)C` [GT-07486, 1-(5-fluoro-4-((4-(1-(6-((5-fluoro-4-(4-fluoro-1-isopropyl-2-methyl-1H-benzo[d]imidazol-6-yl)pyrimidin-2-yl)amino)pyridin-3-yl)piperidin-4-yl)piperazin-1-yl)methyl)pyridin-2-yl)dihydropyrimidine-2,4(1H,3H)-dione], the IC50 in the assay on 22RV1 lay in the range of 10 to 50 nM; in the assay with MM.1S, 50 to 100 nM; in the assay on H1975, 50 to 100 nM; in the assay on CCRF-CEM, 100 to 500 nM; with MCF7, 50 to 100 nM.
Turning to `NC(=O)c1ncc(N2CCCCC2)nc1Nc1ccc(C2CCN(Cc3ccc(C4CCC(=O)NC4=O)cc3)CC2)cc1` (stereo not drawn) [GT-04785, 3-((4-(1-(4-(2,6-dioxopiperidin-3-yl)benzyl)piperidin-4-yl)phenyl)amino)-5-(piperidin-1-yl)pyrazine-2-carboxamide], the IC50 is 100 to 500 nM with PC-9; 500 to 1000 nM in the assay with H1975; 500 to 1000 nM with SW620; 100 to 500 nM in the assay with H2228; 100 to 500 nM with MM.1R.
On to `CN1CCN([C@@H]2CCCN(c3cnc(C(N)=O)c(Nc4ccc(C5CCN(Cc6ccc(N7CCC(=O)NC7=O)cc6)CC5)cc4)n3)C2)C1=O` [GT-04802, (R)-3-((4-(1-(4-(2,4-dioxotetrahydropyrimidin-1(2H)-yl)benzyl)piperidin-4-yl)phenyl)amino)-5-(3-(3-methyl-2-oxoimidazolidin-1-yl)piperidin-1-yl)pyrazine-2-carboxamide], for which the IC50 lay in the range of 100 to 500 nM with PC-9, 500 to 1000 nM in the assay with H1975, 100 to 500 nM with H2228 and 100 to 500 nM in the assay on MM.1R.
As for `COc1cc(C(=O)NC2CCN(Cc3cccc(N4CCC(=O)NC4=O)c3)CC2)c(F)cc1Nc1ncc(C(F)(F)F)c(Oc2cccc3c2C(=O)N(C)C3)n1` [GT-04257, N-(1-(3-(2,4-dioxotetrahydropyrimidin-1(2H)-yl)benzyl)piperidin-4-yl)-2-fluoro-5-methoxy-4-((4-((2-methyl-3-oxoisoindolin-4-yl)oxy)-5-(trifluoromethyl)pyrimidin-2-yl)amino)benzamide], the IC50 in the assay on Jurkat was in the range of 100 to 500 nM; in the assay on CCRF-CEM it was 100 to 500 nM; in the assay with SW620 it was 500 to 1000 nM; with MM.1R, 100 to 500 nM. For the same molecule, the inhibition at 0.5 µM in assay [1] lay in the range of 60 to 80%. In assay [1], the inhibition at 2 µM lay in the range of 80 to 100%.
As for `NC(=O)c1ncc(N2CCCCC2)nc1Nc1ccc(C2CCN(Cc3cccc(NC4CCC(=O)NC4=O)c3)CC2)cc1` (stereo not drawn) [GT-04791, 3-((4-(1-(3-((2,6-dioxopiperidin-3-yl)amino)benzyl)piperidin-4-yl)phenyl)amino)-5-(piperidin-1-yl)pyrazine-2-carboxamide], the IC50 with PC-9 is 500 to 1000 nM; with SW620, 500 to 1000 nM; with H2228 it was 100 to 500 nM; in the assay with MM.1R, < 1 nM.
As for `NC(=O)c1ncc(N2CCCCC2)nc1Nc1ccc(C2CCN(Cc3cccc(N4CCC(=O)NC4=O)c3)CC2)cc1` [GT-04787, 3-((4-(1-(3-(2,4-dioxotetrahydropyrimidin-1(2H)-yl)benzyl)piperidin-4-yl)phenyl)amino)-5-(piperidin-1-yl)pyrazine-2-carboxamide], the IC50 in the assay on PC-9 was in the range of 100 to 500 nM; in the assay with H1975, 500 to 1000 nM; with H2228, 100 to 500 nM; with MM.1R, 500 to 1000 nM.
Consider `Cc1nc2c(F)cc(-c3nc(Nc4ccc(N5CCC(N6CCN(Cc7ccc(C8CCC(=O)NC8=O)c(F)c7)CC6)CC5)cn4)ncc3F)cc2n1C(C)C` (stereo not drawn) [GT-03906, 3-(2-fluoro-4-((4-(1-(6-((5-fluoro-4-(4-fluoro-1-isopropyl-2-methyl-1H-benzo[d]imidazol-6-yl)pyrimidin-2-yl)amino)pyridin-3-yl)piperidin-4-yl)piperazin-1-yl)methyl)phenyl)piperidine-2,6-dione], for which the “Degradation of substrate protein CDK6 (substrate protein remaining %)” value on CDK6 was “A (A is defined as 0% ≤ substrate protein remaining % ≤ 80%)”. Moreover, the “Degradation of substrate protein CDK4 (substrate protein remaining %)” value on CDK4 was “A (A is defined as 0% ≤ substrate protein remaining % ≤ 80%)”. Also, the IC50 is 10 to 50 nM with MM.1S; 100 to 500 nM in the assay with H1975; 100 to 500 nM in the assay with CCRF-CEM; 50 to 100 nM in the assay with Kasumi-1; 100 to 500 nM with MCF7; 50 to 100 nM in the assay with MM.1R. In addition, the IC50 with SR was 50 to 100 nM.

A word on the inhibition: it is how much of the control response was suppressed.
